According to patent US6355799B1, “Substituted benzene compounds, process for their preparation, and herbicidal and defoliant compositions containing them” (ISK Americas Incorporated, priority 1997, dated 2002):

How the values were obtained:
Format in all cases: in vivo
[1] = test system: johnsongrass (Sorghum halepense, SORHA); experiment: Post-emerge test, greenhouse herbicide activity screening; conditions: phytotoxicity rating 0-100 (0 no damage, 100 complete death), 14 days after application
Procedure, shortened: (§1)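 Herbicidal damage is scored 0 (none) to 100 (complete plant death) two weeks after a simulated field spray. Rates span 15–1000 g ai/ha, delivered in acetone at 187 l/ha. For post-emergence treatments, plants have 2–3 leaves and the spray carries 0.25% v/v non-ionic surfactant.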

[2] = test system: ivyleaf morningglory (Ipomoea hederacea, IPOHE); experiment: as above; conditions: phytotoxicity rating 0-100 (0 no damage, 100 complete death), 14 days after application
Procedure, shortened: as §1

[3] = test system: velvetleaf (Abutilon theophrasti, ABUTH); experiment: as above; conditions: phytotoxicity rating 0-100 (0 no damage, 100 complete death), 14 days after application
Procedure, shortened: as §1

[4] = test system: sicklepod (Cassia obtusifolia, CASOB); experiment: as above; conditions: phytotoxicity rating 0-100 (0 no damage, 100 complete death), 14 days after application
Procedure, shortened: as §1

[5] = test system: green foxtail (Setaria viridis, SETVI); experiment: as above; conditions: phytotoxicity rating 0-100 (0 no damage, 100 complete death), 14 days after application
Procedure, shortened: as §1

[6] = test system: redroot pigweed (Amaranthus retroflexus, AMARE); experiment: as above; conditions: phytotoxicity rating 0-100 (0 no damage, 100 complete death), 14 days after application
Procedure, shortened: as §1

[7] = test system: barnyardgrass (Echinochloa crus-galli, ECHCG); experiment: as above; conditions: phytotoxicity rating 0-100 (0 no damage, 100 complete death), 14 days after application
Procedure, shortened: as §1

[8] = test system: lambsquarters (Chenopodium album, CHEAL); experiment: as above; conditions: phytotoxicity rating 0-100 (0 no damage, 100 complete death), 14 days after application
Procedure, shortened: as §1

[9] = test system: common ragweed (Ambrosia artemisizfolia L., AMBEL); experiment: as above; conditions: phytotoxicity rating 0-100 (0 no damage, 100 complete death), 14 days after application
Procedure, shortened: as §1

[10] = test system: large crabgrass (Digitaria sanguinalis, DIGSA); experiment: as above; conditions: phytotoxicity rating 0-100 (0 no damage, 100 complete death), 14 days after application
Procedure, shortened: as §1

[11] = test system: johnsongrass (Sorghum halepense, SORHA); experiment: Pre-emerge test, greenhouse herbicide activity screening; conditions: pre-emerge, rated 14 days after application, 0 = no damage, 100 = complete death
Procedure, shortened: (§2)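 Plants grown in 10 cm pots of sandy loam mix received acetone-dissolved compounds through a moving flat-fan nozzle. Doses ranged from 15 to 1000 g ai/ha. Pre-emerge pots were seeded one day earlier, post-emerge pots 8–21 days earlier. Fourteen days on, each pot was graded 0–100 for damage.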

[12] = test system: ivyleaf morningglory (Ipomoea hederacea, IPOHE); experiment: as above; conditions: pre-emerge, rated 14 days after application, 0 = no damage, 100 = complete death
Procedure, shortened: as §2

[13] = test system: velvetleaf (Abutilon theophrasti, ABUTH); experiment: as above; conditions: pre-emerge, rated 14 days after application, 0 = no damage, 100 = complete death
Procedure, shortened: as §2

[14] = test system: sicklepod (Cassia obtusifolia, CASOB); experiment: as above; conditions: pre-emerge, rated 14 days after application, 0 = no damage, 100 = complete death
Procedure, shortened: as §2

[15] = test system: green foxtail (Setaria viridis, SETVI); experiment: as above; conditions: pre-emerge, rated 14 days after application, 0 = no damage, 100 = complete death
Procedure, shortened: as §2

[16] = test system: barnyardgrass (Echinochloa crus-galli, ECHCG); experiment: as above; conditions: pre-emerge, rated 14 days after application, 0 = no damage, 100 = complete death
Procedure, shortened: as §2

[17] = test system: lambsquarters (Chenopodium album, CHEAL); experiment: as above; conditions: pre-emerge, rated 14 days after application, 0 = no damage, 100 = complete death
Procedure, shortened: as §2

[18] = test system: common ragweed (Ambrosia artemisizfolia L., AMBEL); experiment: as above; conditions: pre-emerge, rated 14 days after application, 0 = no damage, 100 = complete death
Procedure, shortened: as §2

[19] = test system: large crabgrass (Digitaria sanguinalis, DIGSA); experiment: as above; conditions: pre-emerge, rated 14 days after application, 0 = no damage, 100 = complete death
Procedure, shortened: as §2

[20] = test system: field corn (Zea mays L., var. Dekalb 535, CORN); experiment: Post-emerge test, crop safety; conditions: phytotoxicity rating 0-100 (0 no damage, 100 complete death), 14 days after application
Procedure, shortened: (§3)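 Each test used a mechanized track sprayer delivering 187 l/ha of acetone solution at 15–1000 g ai/ha. Post-emerge foliage at 2–3 leaves was treated with added 0.25% v/v non-ionic surfactant and bottom-watered only. Injury was assessed on day 14, where 100 means total kill.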

[21] = test system: upland rice (Oryza sp., var. Tebonnet, RICE); experiment: Post-emerge test, crop safety; conditions: phytotoxicity rating 0-100 (0 no damage, 100 complete death), 14 days after application
Procedure, shortened: as §3

[22] = test system: field corn (Zea mays L., var. Dekalb 535, CORN); experiment: Pre-emerge test, crop safety; conditions: pre-emerge, rated 14 days after application, 0 = no damage, 100 = complete death
Procedure, shortened: (§4)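 Visual ratings on a 0-100 scale (0 no damage, 100 all plants dead) were taken at 14 days after treatment. Rates of 15-1000 g ai/ha in acetone, 187 l/ha, were sprayed onto soil one day after planting (pre-emerge) or onto 2-3 leaf plants with 0.25% v/v surfactant (post-emerge).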

[23] = test system: upland rice (Oryza sp., var. Tebonnet, RICE); experiment: Pre-emerge test, crop safety; conditions: pre-emerge, rated 14 days after application, 0 = no damage, 100 = complete death
Procedure, shortened: as §4

[24] = test system: redroot pigweed (Amaranthus retroflexus, AMARE); experiment: Pre-emerge test, greenhouse herbicide activity screening; conditions: pre-emerge, rated 14 days after application, 0 = no damage, 100 = complete death
Procedure, shortened: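 Compounds in acetone were track-sprayed at 15-1000 g ai/ha (187 l/ha) on sandy loam pots: pre-emerge one day after seeding, post-emerge at 2-3 leaf stage with 0.25% v/v non-ionic surfactant. Phytotoxicity was rated 14 days later on a 0 (no damage) to 100 (complete death) scale.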

COc1c(Cl)cc(F)c(-n2c(=O)cc(C(F)(F)F)n(C)c2=O)c1NC(=O)C(F)(F)F [2-10]
Post-emerge Herbicidal Activity SORHA ([1]; 63 g ai/ha): 0 | Post-emerge Herbicidal Activity SORHA ([1]; 250 g ai/ha): 20 | Post-emerge Herbicidal Activity IPOHE ([2]; 63 g ai/ha): 60 | Post-emerge Herbicidal Activity IPOHE ([2]; 250 g ai/ha): 100 | Post-emerge Herbicidal Activity ABUTH ([3]; 63 g ai/ha): 95 | Post-emerge Herbicidal Activity ABUTH ([3]; 250 g ai/ha): 100 | Post-emerge Herbicidal Activity CASOB ([4]; 63 g ai/ha): 0 | Post-emerge Herbicidal Activity CASOB ([4]; 250 g ai/ha): 10 | Post-emerge Herbicidal Activity SETVI ([5]; 63 g ai/ha): 0 | Post-emerge Herbicidal Activity SETVI ([5]; 250 g ai/ha): 70 | Post-emerge Herbicidal Activity AMARE ([6]; 63 g ai/ha): 0 | Post-emerge Herbicidal Activity AMARE ([6]; 250 g ai/ha): 30 | Post-emerge Herbicidal Activity ECHCG ([7]; 63 g ai/ha): 0 | Post-emerge Herbicidal Activity ECHCG ([7]; 250 g ai/ha): 60 | Post-emerge Herbicidal Activity CHEAL ([8]; 63 g ai/ha): 50 | Post-emerge Herbicidal Activity CHEAL ([8]; 250 g ai/ha): 90 | Post-emerge Herbicidal Activity AMBEL ([9]; 63 g ai/ha): 0 | Post-emerge Herbicidal Activity AMBEL ([9]; 250 g ai/ha): 50 | Post-emerge Herbicidal Activity DIGSA ([10]; 63 g ai/ha): 0 | Post-emerge Herbicidal Activity DIGSA ([10]; 250 g ai/ha): 40 | Pre-emerge Herbicidal Activity SORHA (phytotoxicity rating, scale 0-100) ([11]; 63 g ai/ha): 0 | Pre-emerge Herbicidal Activity SORHA (phytotoxicity rating, scale 0-100) ([11]; 250 g ai/ha): 80 | Pre-emerge Herbicidal Activity IPOHE (phytotoxicity rating, scale 0-100) ([12]; 63 g ai/ha): 60 | Pre-emerge Herbicidal Activity IPOHE (phytotoxicity rating, scale 0-100) ([12]; 250 g ai/ha): 100 | Pre-emerge Herbicidal Activity ABUTH (phytotoxicity rating, scale 0-100) ([13]; 63 g ai/ha): 100 | Pre-emerge Herbicidal Activity ABUTH (phytotoxicity rating, scale 0-100) ([13]; 250 g ai/ha): 100 | Pre-emerge Herbicidal Activity CASOB (phytotoxicity rating, scale 0-100) ([14]; 63 g ai/ha): 50 | Pre-emerge Herbicidal Activity CASOB (phytotoxicity rating, scale 0-100) ([14]; 250 g ai/ha): 90 | Pre-emerge Herbicidal Activity SETVI (phytotoxicity rating, scale 0-100) ([15]; 63 g ai/ha): 40 | Pre-emerge Herbicidal Activity SETVI (phytotoxicity rating, scale 0-100) ([15]; 250 g ai/ha): 100 | Pre-emerge Herbicidal Activity ECHCG (phytotoxicity rating, scale 0-100) ([16]; 63 g ai/ha): 0 | Pre-emerge Herbicidal Activity ECHCG (phytotoxicity rating, scale 0-100) ([16]; 250 g ai/ha): 95 | Pre-emerge Herbicidal Activity CHEAL (phytotoxicity rating, scale 0-100) ([17]; 63 g ai/ha): 100 | Pre-emerge Herbicidal Activity CHEAL (phytotoxicity rating, scale 0-100) ([17]; 250 g ai/ha): 100 | Pre-emerge Herbicidal Activity AMBEL (phytotoxicity rating, scale 0-100) ([18]; 63 g ai/ha): 100 | Pre-emerge Herbicidal Activity AMBEL (phytotoxicity rating, scale 0-100) ([18]; 250 g ai/ha): 100 | Pre-emerge Herbicidal Activity DIGSA (phytotoxicity rating, scale 0-100) ([19]; 63 g ai/ha): 90 | Pre-emerge Herbicidal Activity DIGSA (phytotoxicity rating, scale 0-100) ([19]; 250 g ai/ha): 95 | Post-emerge Herbicidal Activity CORN (crop damage) ([20]; 63 g ai/ha): 5 | Post-emerge Herbicidal Activity CORN (crop damage) ([20]; 250 g ai/ha): 0 | Post-emerge Herbicidal Activity RICE (crop damage) ([21]; 63 g ai/ha): 0 | Post-emerge Herbicidal Activity RICE (crop damage) ([21]; 250 g ai/ha): 5 | Pre-emerge crop damage CORN (phytotoxicity rating, scale 0-100) ([22]; 63 g ai/ha): 0 | Pre-emerge crop damage CORN (phytotoxicity rating, scale 0-100) ([22]; 250 g ai/ha): 40 | Pre-emerge crop damage RICE (phytotoxicity rating, scale 0-100) ([23]; 63 g ai/ha): 0 | Pre-emerge crop damage RICE (phytotoxicity rating, scale 0-100) ([23]; 250 g ai/ha): 30 | Pre-emerge Herbicidal Activity AMARE (phytotoxicity rating, scale 0-100) ([24]; 63 g ai/ha): 50 | Pre-emerge Herbicidal Activity AMARE (phytotoxicity rating, scale 0-100) ([24]; 250 g ai/ha): 100
